Here are results for two compounds from patent publication US20070093511A1, “Anhydrous Crystal Form of Valaciclovir Hydrochloride” (priority 2001, published 2007).

Where a name gives a salt, the structure may show the parent alone.

The nature of data set [1]: Water content by Karl Fischer titration. Type of data set: physicochemical. The settings on record: Example 11 analysis. How it is done: The water of hydration content is measured by the Karl Fischer method which is well known in the art and is described in the 1990 US Pharmacopoeia at pages 1619-1621, and the European Pharmacopoeia, second edition (1992) part 2, sixteenth fascicule at v. 3.5-6.1. Water content (by Karl Fisher titration): 0.61% w/w

A short description of data set [2]: Thermogravimetric analysis (TGA). Type of data set: physicochemical. The settings on record: from 182-310° C., scan rate 10° C. per minute, associated with melting/decomposition. How it is done: Thermogravimetric analysis was carried out on a Perkin-Elmer Pyris-1 TGA system. Scan rate of 10° C. per minute. Sample size 3.757 mg. The TGA trace is provided at FIG. 6. Weight loss from 182-310° C.=42.97% w/w associated with melting/decomposition

The nature of data set [3]: Stability and hygroscopicity of the crystal form (stated, no method). Type of data set: physicochemical. The settings on record: stated as advantage.
For data set [4] the following is noted: compared with acyclovir; cited from earlier work.

For `CC(C)[C@H](N)C(=O)OCCOCn1cnc2c(=O)[nH]c(N)nc21` [Form 2 Valaciclovir Hydrochloride, valaciclovir hydrochloride], in data set [1], the “Water content (by Karl Fisher titration)” value stood at 0.61 % w/w. Besides, in data set [2], the Weight loss worked out at 42.97 % w/w. Further, in data set [3], the Hygroscopicity entry is “essentially non-hygroscopic” and the “Stability of crystal form” value is listed as “stable”.

Consider `CC(C)[C@H](N)C(=O)OCCOCn1cnc2c(=O)[nH]c(N)nc21` [valaciclovir], for which the Bioavailability result in data set [4] was “much improved bioavailability”.
